According to PMC6973020, “Quinoline‐Conjugated Ruthenacarboranes: Toward Hybrid Drugs with a Dual Mode of Action” (Chemmedchem, 2019):

Legend:
Format in all cases: cell-based, human
MCF‐7 cells [1] = experiment: DAPI staining, fluorescence microscopy, MCF‐7; details: MCF‐7, 20 μM, 72 h
Experimental: (§1) Flow cytometry. For gaining better insights into the mechanisms of action of the ruthenium complexes, MCF‐7 and LN229 cells incubated with an IC50 dose of 3 or 4, were analyzed via flow cytometry. Several staining protocols were carried out in parallel, in independent experiments: i) AnnV/PI for the detection of apoptotic cell death, ii) AO for the detection of acidic vacuoles, iii) ApoStat for checking caspase activation, iv) CFSE for detecting interference with cellular proliferation, and v) DAPI for the detection of morphological signs of apoptosis. Untreated cells or cells treated only with BSA (control) were also measured, as reference for BSA‐free and BSA‐containing drug formulations, respectively. […] Channels FL1 (green emission), FL2 (orange emission) and/or FL3 (dark red emission) were used for fluorescence detection, according to the specific staining agent. Sideward Scatter (SSC) for MCF‐7 cells treated with 4 or BSA−4 was also analyzed, with respect to the control, for detection of shifts of cell granularity. […]
FCS, 2 mM L‐glutamine, 0.01% sodium pyruvate and antibiotics, at 37 °C in a humidified atmosphere with 5% CO2. […] Cells were counted and seeded in 96‐well plates and incubated overnight, as described above. […]
Staining Protocols for Flow Cytometric Analysis. […] Finally, cells were washed in PBS, resuspended in PBS (or AnnV‐binding buffer for AnnV/PI), and analysed. […]

MCF‐7 cells [2] = experiment: Sideward Scatter (SSC, cell granularity), MCF‐7; details: MCF‐7, 20 μM of 4, 72 h
Experimental: as §1
Figure S16. […] Respective controls, i.e. untreated cells or cells treated only with BSA, were also measured for comparison. […]
Figure S17. […] Respective controls, i.e. untreated cells or cells treated only with BSA, were also measured for comparison.
Sideward Scatter is proportional to cell granularity and was determined via flow cytometry. […]

MCF‐7 cells [3] = experiment: CV viability of MCF‐7 exposed to 3 together with autophagy inhibitors; details: MCF‐7, 3 together with CQ or 3‐MA (0.5 mM), 72 h, CV assay
Experimental: Colorimetric assays for cellular viability. […] Cells were then washed with tap water, dried in air, and the CV dye was dissolved in 33 % (w/v) acetic acid solution. […] The dye was then discarded, and the formed formazan (purple) was dissolved in DMSO. The absorbance was measured with an automated microplate reader at λmax 540 nm, with the reference λmax 670 nm. Untreated cells or cells treated only with BSA (control) were also measured, as reference for BSA‐free and BSA‐containing drug formulations, respectively. […] Cell viability is expressed as percentage (%) relative to control (untreated cultures).58 Experiments were run in three independent replicates. […] Non‐linear regression analyses of the obtained results was done using GraphPad Prism software to calculate IC50 values. page 17: Figure S15. […] MA, 0.5 mM) for 72 h, from CV assay. Data are expressed as indicated above for Figure S11. * indicates statistically significant (p < 0.05) values, with respect to the control, # with respect to cells treated with 3. S16 (1 picture or pasted object on this page, not shown here)

## closo ‐[3‐(η^6‐p‐Cymene)‐1‐(quinolin‐8‐yl‐acetate)‐3,1,2‐RuC2B9H10] [Compound 4]
MCF‐7 cells [1]
  morphological signs of apoptosis (DAPI): sparse morphological signs of apoptosis
MCF‐7 cells [2]
  cell granularity (SSC): enhanced granularity

## closo‐ [Compound 3, closo‐ [3‐(η^6‐p‐Cymene)‐1‐(CH2COOH)‐3,1,2‐RuC2B9H10]]
MCF‐7 cells [3]
  cell viability on co‐treatment with an inhibitor of autophagy: restoration of cellular viability
MCF‐7 cells [1]
  morphological signs of apoptosis (DAPI): sparse morphological signs of apoptosis
